According to PubChem BioAssay AID248 (DTP/NCI, 2004):
Several values for one entry are separate records, joined by “and”; a condition that tells them apart may be missing. Identical values can stand only once. Toxic doses and inconclusive results are not listed. Rule as the data show it: active = T/C of 150% or more; inactive = T/C below 125%.

Tested on: L1210 leukemia ip in BDF1 mice, survival T/C
Experiment: NCI In Vivo Anticancer Drug Screen. Data for tumor model L1210 Leukemia (intraperitoneal) in B6D2F1 (BDF1) mice
Details: endpoint: mean survival time, higher = longer survival
In short: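 Transplantable tumor model; survival measured in treated vs vehicle control mice. Value = treated/control.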

[1] = dose: 50.0 mg/kg/injection, schedule: Q01DX009 (ip), vehicle: saline with Tween-80
[2] = dose: 100.0 mg/kg/injection, schedule: Q01DX009 (ip), vehicle: saline with Tween-80
[3] = dose: 100.0 mg/kg/injection, schedule: Q04DX003 (ip), vehicle: saline with Tween-80
[4] = dose: 200.0 mg/kg/injection, schedule: Q01DX009 (ip), vehicle: saline with Tween-80
[5] = dose: 200.0 mg/kg/injection, schedule: Q04DX003 (ip), vehicle: saline with Tween-80
[6] = dose: 400.0 mg/kg/injection, schedule: Q04DX003 (ip), vehicle: saline with Tween-80
[7] = dose: 100.0 mg/kg/injection, schedule: Q04DX002 (ip), vehicle: Klucel (hydroxypropylcellulose) (HPC)
[8] = dose: 200.0 mg/kg/injection, schedule: Q04DX002 (ip), vehicle: Klucel (hydroxypropylcellulose) (HPC)
[9] = dose: 400.0 mg/kg/injection, schedule: Q04DX002 (ip), vehicle: Klucel (hydroxypropylcellulose) (HPC)
[10] = dose: 100.0 mg/kg/injection, schedule: Q04DX002 (ip), vehicle: saline with Tween-80
[11] = dose: 200.0 mg/kg/injection, schedule: Q04DX002 (ip), vehicle: saline with Tween-80
[12] = dose: 400.0 mg/kg/injection, schedule: Q04DX002 (ip), vehicle: saline with Tween-80
[13] = dose: 100.0 mg/kg/injection, schedule: Q01DX009 (ip), vehicle: saline
[14] = dose: 200.0 mg/kg/injection, schedule: Q01DX009 (ip), vehicle: saline
[15] = dose: 100.0 mg/kg/injection, schedule: Q01DX001 (ip), vehicle: carboxymethylcellulose (CMC)
[16] = dose: 200.0 mg/kg/injection, schedule: Q01DX001 (ip), vehicle: carboxymethylcellulose (CMC)
[17] = dose: 400.0 mg/kg/injection, schedule: Q01DX001 (ip), vehicle: carboxymethylcellulose (CMC)
[18] = dose: 100.0 mg/kg/injection, schedule: Q04DX003 (ip), vehicle: saline
[19] = dose: 200.0 mg/kg/injection, schedule: Q04DX003 (ip), vehicle: saline
[20] = dose: 12.5 mg/kg/injection, schedule: Q01DX009 (ip), vehicle: saline with Tween-80
[21] = dose: 25.0 mg/kg/injection, schedule: Q01DX009 (ip), vehicle: saline with Tween-80

Measured: T/C

Cc1cc(C)c(NC(=O)NCCCl)c(C)c1
inactive: [1] 103 % of control | [2] 109 % of control | [3] 91 % of control | [4] 116 % of control | [5] 93 % of control | [6] 117 % of control

CN(C)c1ccc(N=Nc2nccs2)cc1
inactive: [3] 91 % of control | [6] 88 % of control

COC(=O)C(Cc1ccccc1)NC(=O)C(C)NC(=O)OCc1ccccc1 (stereo not drawn)
inactive: [7] 105 % of control | dose: 130.0 mg/kg/injection, schedule: Q04DX002 (ip), vehicle: Klucel (hydroxypropylcellulose) (HPC) 100 % of control and 86 % of control | [8] 100 % of control | dose: 300.0 mg/kg/injection, schedule: Q04DX002 (ip), vehicle: Klucel (hydroxypropylcellulose) (HPC) 100 % of control and 103 % of control | [9] 108 % of control

O=c1ccs[nH]1
inactive: dose: 12.5 mg/kg/injection, schedule: Q04DX003 (ip), vehicle: saline with Tween-80 106 % of control | dose: 25.0 mg/kg/injection, schedule: Q04DX003 (ip), vehicle: saline with Tween-80 98 % of control

CCCCNC(=S)NN=C(N)N
inactive: [10] 96 % of control | [11] 100 % of control | [12] 92 % of control

CCCCCSC(=O)C(N)=O
inactive: [2] 102 % of control | [3] 100 % of control | [4] 100 % of control | [5] 109 % of control | dose: 400.0 mg/kg/injection, schedule: Q01DX009 (ip), vehicle: saline with Tween-80 96 % of control | [6] 92 % of control

O=C(OC(=O)c1ccncc1)c1ccncc1
inactive: dose: 75.0 mg/kg/injection, schedule: Q04DX003 (ip), vehicle: saline 94 % of control | dose: 150.0 mg/kg/injection, schedule: Q04DX003 (ip), vehicle: saline 92 % of control | dose: 300.0 mg/kg/injection, schedule: Q04DX003 (ip), vehicle: saline 110 % of control

COn1c(=O)c2ccccc2n(C)c1=O
inactive: dose: 62.5 mg/kg/injection, schedule: Q01DX009 (ip), vehicle: other 96 % of control | dose: 125.0 mg/kg/injection, schedule: Q01DX009 (ip), vehicle: other 94 % of control | dose: 250.0 mg/kg/injection, schedule: Q01DX009 (ip), vehicle: other 98 % of control

O=C(O)/C=C/C(=O)Nc1ccccc1-n1cccc1
inactive: [13] 106 % of control | [14] 97 % of control

CCCCC(=O)N/N=C/c1cc(OCC)c(OCC)cc1OCC
inactive: [15] 96 % of control | [16] 98 % of control | [17] 91 % of control

O=C(O)Cc1n[nH]c(=O)c2ccccc12
inactive: [7] 93 % of control | [8] 99 % of control | [9] 102 % of control

C=C(C(=O)c1ccccc1)C(O)c1ccccc1 (stereo not drawn)
inactive: [2] 104 % of control | [3] 100 % of control | [4] 90 % of control | [5] 100 % of control | [6] 97 % of control

CN=C1N[N+]2=C(C)CCCC2(C)S1 (stereo not drawn)
inactive: [18] 101 % of control | [19] 89 % of control

NC(=O)CSSCC(N)=O
inactive: [18] 98 % of control | [19] 93 % of control

CCOC(=O)/C=C/c1c(Cl)nc2ccccn2c1=O
inactive: dose: 100.0 mg/kg/injection, schedule: Q01DX001 (ip), vehicle: saline with Tween-80 96 % of control | [13] 90 % of control | dose: 200.0 mg/kg/injection, schedule: Q01DX001 (ip), vehicle: saline with Tween-80 94 % of control | [14] 90 % of control | dose: 400.0 mg/kg/injection, schedule: Q01DX001 (ip), vehicle: saline with Tween-80 92 % of control | dose: 400.0 mg/kg/injection, schedule: Q01DX009 (ip), vehicle: saline 95 % of control

CCCCCCC(C)(O)CCCCOC(C)OCC (stereo not drawn)
inactive: dose: 50.0 mg/kg/injection, schedule: Q04DX002 (ip), vehicle: saline with Tween-80 95 % of control | [10] 95 % of control | [11] 88 % of control | [12] 95 % of control

CC1COC(Nc2cccc3c2CCCC3)=N1 (stereo not drawn)
inactive: [20] 103 % of control | [21] 92 % of control | [1] 90 % of control

Cc1ccc(C(/C=C/c2ccccc2)=N\N=C(N)N)cc1
inactive: dose: 15.0 mg/kg/injection, schedule: Q01DX Z (ip), vehicle: methylcellulose (MC) 87 % of control | dose: 30.0 mg/kg/injection, schedule: Q01DX Z (ip), vehicle: methylcellulose (MC) 87 % of control | dose: 30.0 mg/kg/injection, schedule: Q01DX Z (oral), vehicle: methylcellulose (MC) 93 % of control | dose: 60.0 mg/kg/injection, schedule: Q01DX Z (ip), vehicle: methylcellulose (MC) 97 % of control | dose: 60.0 mg/kg/injection, schedule: Q01DX Z (oral), vehicle: methylcellulose (MC) 87 % of control | dose: 120.0 mg/kg/injection, schedule: Q01DX Z (oral), vehicle: methylcellulose (MC) 95 % of control | dose: 240.0 mg/kg/injection, schedule: Q01DX Z (oral), vehicle: methylcellulose (MC) 95 % of control | dose: 480.0 mg/kg/injection, schedule: Q01DX Z (oral), vehicle: methylcellulose (MC) 100 % of control

COC(=O)NS(=O)(=O)OC
inactive: dose: 100.0 mg/kg/injection, schedule: Q04DX002 (ip), vehicle: saline 103 % of control | dose: 200.0 mg/kg/injection, schedule: Q04DX002 (ip), vehicle: saline 110 % of control

NC(=O)c1cc[n+](-c2ccc([N+](=O)[O-])cc2[N+](=O)[O-])cc1
inactive: [18] 102 % of control | [19] 103 % of control

c1ccc2c(c1)C[N+]1(Cc3ccccc3-2)CC12CCCCC2
inactive: dose: 12.0 mg/kg/injection, schedule: Q01DX009 (ip), vehicle: saline 110 % of control | dose: 25.0 mg/kg/injection, schedule: Q01DX009 (ip), vehicle: saline 104 % of control | dose: 50.0 mg/kg/injection, schedule: Q01DX009 (ip), vehicle: saline 100 % of control

Cc1c(Cl)cccc1CC(Cl)C#N (stereo not drawn)
inactive: [20] 97 % of control | [21] 90 % of control | [1] 87 % of control | [2] 89 % of control

CCc1ccccc1NC(=O)c1ccccc1Cl
inactive: dose: 100.0 mg/kg/injection, schedule: Q01DX009 (ip), vehicle: other 97 % of control | [3] 102 % of control | dose: 200.0 mg/kg/injection, schedule: Q01DX009 (ip), vehicle: other 95 % of control | [5] 101 % of control | dose: 400.0 mg/kg/injection, schedule: Q01DX009 (ip), vehicle: other 89 % of control | [6] 93 % of control

O=C1C=CC(=O)N1Cc1ccc[n+](CCC[n+]2cccc(CN3C(=O)C=CC3=O)c2)c1
inactive: [15] 98 % of control | [16] 91 % of control | [17] 96 % of control
